Here are results for six molecules from article PMC4229119, “Alzheimer's Therapeutics Targeting Amyloid Beta 1–42 Oligomers II: Sigma-2/PGRMC1 Receptors Mediate Abeta 42 Oligomer Binding and Synaptotoxicity” (PLoS ONE, 2014).

The test system of data set [1] is SKOV-3 human ovarian cancer cells. The data set can be described thus: Cell death in SKOV-3 human ovarian cancer cells. Format: cell-based.
The target of data set [2] is Na^+ Channel (site2). Description: Cerep panel: Na+ Channel (site2) radioligand binding. Conditions: Cerep 0169. As for the experimental part:
(§1) Active CogRx molecules were counterscreened for activity at 100 central nervous system receptors and enzymes (including those involved in neurotransmission and synaptic plasticity) in industry-standard assays measuring radioligand binding displacement and signaling activity (assays performed at Cerep/Eurofins, Inc., Table S1). […] To determine if these compounds were capable of displacing binding to sigma-2/PGRMC1 receptors in human brain, CT0093 and CT0109 were added in increasing concentrations to serial sections of unfixed frozen cognitively normal elderly human frontal cortex in the presence of a specific radioligand for sigma-2/PGRMC1, ^125I-RHM-4 [31] ( Fig. 1 B–D ).

The target of data set [3] is T1, Dopamine 3 (Homo sapiens, UniProt P35462).
T1 construct: purchased Cerep/Eurofins, Inc
The data set can be described thus: Cerep panel: Dopamine 3 agonist activity. Format: cell-based. The conditions noted are these: Cerep 0683. The method, then: as §1

The subject of data set [4] is synapses. Further details: method as in PMID 25390368. The conditions noted are these: cited from earlier work.
Data set [5] relates to caspase-3/7. Description: SV119-induced caspase-3/7 activation in hippocampal and cortical cultures, co-treatment with antagonists. Format: cell-based, rat. Conditions: for block of the activation of caspase-3/7 by SV119: 40 µM antagonist, ascending concentrations of SV119, hippocampal and cortical cultures. As for the experimental part: (§2) Little is known about the functional pharmacology of ligands for the sigma-2/PGRMC1 receptor. […] Finally, we treated hippocampal and cortical cultures with ascending concentrations of SV119 to induce caspase activation, in the presence of 40 µM of each of the sigma-2/PGRMC1 antagonists CT0109, CT0093 and RHM-1 ( Fig. 8E ).

For data set [6], the target named is T2, mu opioid (Homo sapiens, UniProt P35372).
T2 construct: purchased Cerep/Eurofins, Inc. 0118
Description: Cerep panel: mu opioid radioligand binding. Conditions: Cerep 0118. The method, then: as §1

For data set [7], the system named is mouse models of Alzheimer's disease. The arrangement: method as in PMID 25390368. Conditions: cited from earlier work.
The target in data set [8] is T3, Sigma-1 (Homo sapiens, UniProt Q99720).
T3 construct: purchased Cerep/Eurofins, Inc. 0889
The data set can be described thus: Cerep panel: Sigma-1 radioligand binding. The conditions noted are these: Cerep 0889. The method, then: as §1

In data set [9] the target is T4, sigma-2/PGRMC1 receptors in human brain (Homo sapiens, UniProt Q5BJF2).
T4 construct: serial sections of unfixed frozen cognitively normal elderly human frontal cortex; from tissue; host or cells: human frontal cortex, unfixed frozen sections
Description: Quantitative autoradiography, radioligand displacement from human frontal cortex sections. Conditions: serial sections of unfixed frozen cognitively normal elderly human frontal cortex; 10-10,000 nM compound; N = 4; read-out: Ki at the [125I]RHM-1 binding site, human frontal cortex. In general terms: Loss of bound radioactivity is the signal in a displacement assay; it reports binding, not function.
Description: Quantitative autoradiography studies on frozen unfixed serial tissue sections from normal (N = 4) or Alzheimer's disease (N = 4) postmortem patients' neocortex were conducted and quantified according to previously published procedures [40]. [^3H](+) pentazocine was used as the radioligand for sigma-1 receptors and [^125I]RHM-1 (American Radiolabelled Chemicals, Inc.) or [^3H]DTG (1,3-Di-(2-tolyl)guanidine (Perkin Elmer) in the presence of 1 µM (+) pentazocine for sigma-2 receptors [32]. Human brain samples for these studies were obtained with written consent as previously published [40].

Data set [10] has as its system primary hippocampal/cortical cultures. The data set can be described thus: Cell death in mature primary neuronal cultures. Format: cell-based, rat.
The test system of data set [11] is caspase-3/7. Description: Caspase-3/7 activation in SKOV-3 tumor cell line. It is filed as cell-based, human.
The target in data set [12] is T5, sigma-2/PGRMC1 receptor (Homo sapiens, UniProt Q5BJF2).
T5 construct: host or cells: Jurkat cell membranes
Description: Sigma-2 radioligand binding ([3H]DTG competition, Jurkat cell membranes; Cerep 0148). Conditions: homogenates of a human T cell line; mean ± S.E.M.; read-out: Ki, displacement of selective radioligand [3H]-DTG from sigma-2/PGRMC1 receptor. The method, then: Radioligand competition assays were performed in membranes from Jurkat cells using 5 nM [^3H]1,3-di(2-tolyl) guanidine in the presence of 1 µM (+)-pentazocine with 10 µM haloperidol to define non-specific binding.

In data set [13] the test system is mixed cultures of hippocampal plus cortical neurons and glia. The arrangement: method as in PMID 25390368. Conditions: cited from earlier work.
Data set [14] has as its system caspase-3/7. Description: Caspase-3/7 activation in primary hippocampal/cortical cultures. Format: cell-based, rat. Conditions: for activation of caspase-3/7: primary hippocampal/cortical cultures. The method, then:
as §2

The subject of data set [15] is sigma-2/PGRMC1. The data set can be described thus: Immunofluorescent sigma-2/PGRMC1 expression in neuronal cultures. Format: cell-based, rat. Conditions: for increase of total intensity of sigma-2/PGRMC1 expression in the cell body: 400 nM Abeta oligomers, pooled neurons and glia, vs vehicle. As for the experimental part:
To assess the ability of test compounds to prevent the binding of Abeta oligomers, cultures were treated with compounds for 30 minutes, followed by synthetic Abeta 1–42 oligomer preparation treatment for 60 min (total Abeta concentration 0.5 µM, equivalent to Kd concentration). Alternatively, displacement of prebound oligomers was evaluated by adding oligomers 60 min prior to the addition of compounds, followed by additional 30 minutes incubation. Cells were fixed with 3.75% formaldehyde for 15 min, blocked with 5% normal goat serum and 0.5% Triton X-100 and incubated with primary antibodies for Abeta (1 µg/ml 6E10 or 4G8, Covance catalog numbers SIG-39320 and SIG-39330, respectively), MAP-2 (0.2 µg/ml Chemicon), Synaptophysin-1 (1 µg/ml, Anaspec), glial fibrillary acidic protein (GFAP, 1 µg/ml, Thermo-Fisher) and fluorescently labeled secondary antibodies (2 µg/ml, Invitrogen). Images were acquired on a Cellomics VTi automated microscope with a 20X, 0.75 NA objective and analyzed using ThermoFisher/Cellomics Neuronal Profiling bioapplication set to measure punctate labeling of Abeta and synaptophysin-1 along MAP-2 labeled neurites. For each replicate experiment, at least 100 neurons were sampled from 4 replicate wells for each experimental condition (400 to 500 neurons per experimental condition). […]
(§3) Neuronal cultures were treated with either a mixture of 4 siRNAs targeted against PGRMC1 (GUCUAGGUCUUGGAUAAUA, GGUUUUACCUCAAAUCAGA, UUAGAAUGCAUGAUGUGUU, CUUCUAUCUGUAGUUAAAA, catalog number A-095365-00-0050) or a non-targeting sequence (UGGUUUACAUGUUUUCCUA, catalog number D-001910-03-50, Accell, ThermoFisher). siRNA were resuspended to 100 µM in RNase free water, shaken for 1.5 hours at 37°C, diluted in media and applied to cells at 1 or 2 uM for 48 hours prior to addition of Abeta oligomers for 30 minutes. Cultures were then fixed and co-immunolabeled with 6E10 antibody to detect Abeta and antibody to detect PGRMC1 as described above and analyzed via automated image processing as described above. For PGRMC1 measurements, total intensity in cell bodies was measured.

In data set [16] the target is hippocampal and cortical neurons. The data set can be described thus: Abeta binding assay (Abeta oligomer binding to synaptic puncta of cultured neurons). Format: cell-based, rat. The method, then: To assess the ability of test compounds to prevent the binding of Abeta oligomers, cultures were treated with compounds for 30 minutes, followed by synthetic Abeta 1–42 oligomer preparation treatment for 60 min (total Abeta concentration 0.5 µM, equivalent to Kd concentration). Alternatively, displacement of prebound oligomers was evaluated by adding oligomers 60 min prior to the addition of compounds, followed by additional 30 minutes incubation. […]
as §3, with “measured. […]” for “measured.”

T3 sequence (Q99720 whole entry): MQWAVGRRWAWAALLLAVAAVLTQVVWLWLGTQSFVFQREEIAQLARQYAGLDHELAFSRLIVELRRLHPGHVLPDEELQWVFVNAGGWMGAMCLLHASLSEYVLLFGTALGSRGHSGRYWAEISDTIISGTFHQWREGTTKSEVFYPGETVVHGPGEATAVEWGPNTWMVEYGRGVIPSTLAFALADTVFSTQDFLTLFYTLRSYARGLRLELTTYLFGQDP
T4 sequence (Q5BJF2 whole entry): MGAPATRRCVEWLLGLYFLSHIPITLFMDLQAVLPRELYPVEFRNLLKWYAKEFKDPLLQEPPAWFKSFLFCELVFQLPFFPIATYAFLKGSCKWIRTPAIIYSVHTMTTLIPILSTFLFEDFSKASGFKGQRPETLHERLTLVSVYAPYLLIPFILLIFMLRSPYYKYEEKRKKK
T5 sequence (Q5BJF2 whole entry): as above
T1 sequence (P35462 whole entry): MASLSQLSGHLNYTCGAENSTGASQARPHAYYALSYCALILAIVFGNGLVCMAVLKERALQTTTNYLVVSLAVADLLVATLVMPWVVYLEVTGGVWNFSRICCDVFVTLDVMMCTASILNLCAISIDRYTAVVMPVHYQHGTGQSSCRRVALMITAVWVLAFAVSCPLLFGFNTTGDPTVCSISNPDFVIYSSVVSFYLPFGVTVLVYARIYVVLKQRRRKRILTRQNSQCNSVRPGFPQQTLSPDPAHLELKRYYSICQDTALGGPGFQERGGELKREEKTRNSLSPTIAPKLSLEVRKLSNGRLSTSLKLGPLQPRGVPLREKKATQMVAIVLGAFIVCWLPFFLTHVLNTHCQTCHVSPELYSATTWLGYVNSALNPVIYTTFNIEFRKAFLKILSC
T2 sequence (P35372 whole entry): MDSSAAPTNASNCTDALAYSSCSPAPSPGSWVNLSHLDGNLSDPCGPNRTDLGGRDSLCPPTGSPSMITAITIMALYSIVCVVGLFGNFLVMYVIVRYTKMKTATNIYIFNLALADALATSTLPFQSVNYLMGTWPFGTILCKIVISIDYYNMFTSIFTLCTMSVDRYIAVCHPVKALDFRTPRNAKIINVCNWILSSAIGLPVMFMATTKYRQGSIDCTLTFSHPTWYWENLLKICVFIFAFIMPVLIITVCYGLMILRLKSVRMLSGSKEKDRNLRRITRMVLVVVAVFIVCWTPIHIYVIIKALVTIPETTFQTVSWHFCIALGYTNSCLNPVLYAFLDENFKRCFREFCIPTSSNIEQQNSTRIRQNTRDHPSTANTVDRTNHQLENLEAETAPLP

In general, EC50 refers to the concentration at which the effect is half-maximal. Regarding `COc1cc(CCC(C)NCc2ccc(C(F)(F)F)cc2)ccc1O` (centres unmarked) [CT0109], the “concentrations at which cell viability is affected” value in [1] and in data set [10] was over 100 µM each time. Besides, the Ki was found to be 2000 nM in data set [2]; 1700 nM in [6]; 500 nM in data set [8]; 57 ± 23 nM in data set [9]; 9 ± 7 nM in data set [12]. The same molecule yielded an EC50 in [3] of 4100 nM. Also, the restoration of synapses entry in data set [4] is listed as “restore synapses to normal”. The “block of the activation of caspase-3/7 by SV119” value in data set [5] was “significantly blocked the activation of caspase-3/7 by SV119”. Moreover, the “restoration of cognitive function” value in data set [7] was “restore cognitive function”. Moreover, the “activation of caspase-3/7” value in data set [11] and in [14] was “did not” throughout. Moreover, the “reversal of Abeta oligomer-mediated trafficking deficits” value in [13] is “reverse Abeta oligomer-mediated trafficking deficits”.
Take `COc1cc2c(cc1OC)CN(CCCCNC(=O)c1cc(C)ccc1OC)CC2` [RHM-1]: the “concentrations at which cell viability is affected” value in data set [1] and in data set [10] was over 100 µM throughout. Besides, the “block of the activation of caspase-3/7 by SV119” value in [5] is on record as “did not”. Further, the “activation of caspase-3/7” value in data set [11] and in data set [14] was “did not” each time.
On to `COc1ccc(C)cc1NC(=O)OC1C[C@H]2CCC[C@@H](C1)N2CCCCCCN` (some centres unmarked) [SV-119], for which the dose-dependent cell death result in data set [1] and in data set [10] was “caused dose-dependent cell death” in each case. Further, the “activation of caspase 3/7” value in data set [5] (20 to 80 µM for 24 hours, hippocampal and cortical cells, p<0.05 vs control) was “induced the activation of caspase 3/7”.
In the case of `Fc1ccc(-n2cc(CCCCN3CCC4(CC3)OCc3ccccc34)c3ccccc32)cc1` [siramesine], the dose-dependent cell death result in data set [1] and in [10] was “caused dose-dependent cell death” throughout. In addition, the “activation of caspase-3/7” value in [11] and in data set [14] was “activated caspase-3/7” throughout.
Usually Kd stands for the equilibrium constant for the complex coming apart. Turning to “Abeta oligomers: synthetic Abeta 1–42 oligomer preparation”, the “increase of total intensity of sigma-2/PGRMC1 expression in the cell body” value in [15] (24 hours) turned out to be 13%; in data set [15] (48 hours) it was 28%. In data set [16] (specific and saturable binding, read-out: Kd, binding to a single receptor site on neuronal synaptic puncta), the equilibrium dissociation constant (Kd) worked out at 518 ± 41 nM. Further, the oligomer-induced caspase activation result in data set [14] (21 DIV primary hippocampal and cortical neuronal cultures, 3–48 hours, up to 28 uM) is recorded as “unable to detect oligomer-induced caspase activation”.
Take “Non-targeting siRNA: non-targeting sequence UGGUUUACAUGUUUUCCUA, catalog number D-001910-03-50 (further chemistry not given here) [reference compound]”: the “reduction in immunocytochemically detectable sigma-2/PGRMC1 protein in neuronal cell body and synaptic puncta” value in data set [15] (siRNA 1 or 2 µM, 48 hours, vs untreated cultures) is “has no effect”. For the same molecule, the “reduction in Abeta oligomer binding” value in data set [16] (siRNA 1 or 2 µM, 48 hours, then Abeta oligomers 30 minutes, vs untreated cultures) is “has no effect”.
